Measurements from publication PMC13013135, “[^99mTc]Tc-PSMA-HSG for PSMA-targeted Hybrid Surgical Guidance: a new addition to the PSMA-I&S/I&T family” (European Journal of Nuclear Medicine and Molecular Imaging, 2025).
Read-outs that look alike come from different tables or passages of the source. One block for each compound: values may come before it. Square brackets hold non-standard residues; d marks the D form. Peptide text beside a SMILES is read from it. * marks the point of attachment. X1 = O=C(O)CC[C@H](NC(=O)N[C@@H](CCCCNC(=O)CCCCCCC(=O)*)C(=O)O)C(=O)O; d2Nal = N[C@H](Cc1ccc2ccccc2c1)C(=O)O; Mercaptoacetyl = O=C(CS)*

Legend:
PSMA = PSMA (Homo sapiens, UniProt Q04609); experiment: Competitive binding (IC50) on LNCaP cells with ([^125I]I-BA)KuE as radioligand; conditions: for IC50: LNCaP cells, ([^125I]I-BA)KuE radioligand, free mas3-chelator
Procedure: Competitive binding experiments (IC50) were carried out in accordance with an established protocol using PSMA-expressing LNCaP cells and ([^125I]I-BA)KuE as standard radioligand. […] Please see the Supplementary Material for experimental details. For IC50 determination, approximately 150.000 cells/well were seeded on 24-well plates one day prior to the experiment. For internalization studies, 125.000 cells/well in PDL-coated 24-well plates were used. Cell counting was carried out using a Corning cell counter (Cytosmart, Eindhoven, The Netherlands).

[1] = cited from earlier work
[2] = tested on: PSMA expressing LNCaP cells; experiment: Dual tracer internalization assay; format: cell-based, human; conditions: 60 min, 37 °C, 0.5 nM tracer, normalized to ([^125I]IBA)KuE
Procedure: Competitive binding experiments (IC50) were carried out in accordance with an established protocol using PSMA-expressing LNCaP cells and ([^125I]I-BA)KuE as standard radioligand. […] Please see the Supplementary Material for experimental details. […] The supernatant was removed, cells were washed with assay medium, and an acid wash (50 mM NaOAc in saline, pH 4.5) was performed to remove membrane-associated activity. Cells were then lysed using 1N NaOH, and internalized activity was quantified using a γ-counter. […] Tocris Bioscience, Bristol, UK) and normalized to the specific internalization observed for the radioiodinated reference compound in the same experiment. Data represent means ± SD (n=3) from three separate determinations.

[3] = Lipophilicity, modified shake-flask method; format: physicochemical
Procedure: The lipophilicity of [^99mTc]Tc-PSMA-HSG was determined via a modified shake-flask method as described.

mouse serum = experiment: Plasma protein binding (B50), ultrafiltration, mouse serum; format: in vitro ADME
Procedure: (§1) A detailed experimental procedure is provided in the Supplementary Material. […] Briefly, protein solutions (maximum concentration: […] Samples were briefly vortexed and incubated for 30 min at 37 °C. […] The filter units were then removed from the centrifugal tubes and washed twice with 300 µL PBS to recover the protein fraction. The activity in the filtrate, filter and protein fraction were then quantified using a γ-counter. […] The percentages of radioligand bound to the respective proteins are represented as means ± standard deviation (SD) of three independent experiments.

[4] = molecular target: human serum albumin (HSA) (Homo sapiens, UniProt P02768); experiment: Plasma protein binding (B50), ultrafiltration, HSA; format: in vitro ADME
Procedure: as §1

human serum = experiment: Plasma protein binding (B50), ultrafiltration, human serum; format: in vitro ADME
Procedure: as §1

[5] = tested on: LNCaP xenograft bearing NSG mice; experiment: Biodistribution in LNCaP xenograft bearing NSG mice; conditions: 6 h p.i., 0.1 nmol
Procedure: The biodistribution of [^99mTc]Tc-PSMA-HSG and of the reference compound [^99mTc]Tc-PSMA-I&S was investigated in LNCaP xenograft bearing NSG mice (see supplemental information).
Mice were injected intravenously with the respective ^99mTc-labeled tracer (24–34 MBq (fixed peptide dose of 1 nmol/mouse) or 3.7–7.6 MBq (fixed peptide doses of 0.1 nmol/mouse), respectively) and were sacrificed at 2 h (1 nmol-cohort) or 6 h p.i. (0.1 nmol-cohort), respectively. The organs of interest were dissected, and the activity concentration in weighed tissue samples was quantified using an AMG Automatic Gamma Counter (Hidex, Turku, Finland). Biodistribution data are given in %iD/g and represent means ± SD (groups of n = 5 animals). Statistical analysis (Multiple unpaired t-test) of biodistribution data and tumor/organ ratios was performed using GraphPad Prism (Boston, USA).
To induce LNCaP tumor growth, a suspension of LNCaP cells (approx. 5 x 10^6 cells/mouse) in 200 μl of a 1:1 mixture of serum-free DMEM and Matrigel (BD Biosciences) was injected subcutaneously into the right shoulder of male NOD scid gamma (NSG) mice (6-8 weeks, in-house breeding, Dpt. of Oncology, University of Lausanne). After approximately 9 weeks, tumor size reached 4-8 mm in diameter and the mice were used for the in vivo studies.

Sequence of PSMA (Q04609 whole entry): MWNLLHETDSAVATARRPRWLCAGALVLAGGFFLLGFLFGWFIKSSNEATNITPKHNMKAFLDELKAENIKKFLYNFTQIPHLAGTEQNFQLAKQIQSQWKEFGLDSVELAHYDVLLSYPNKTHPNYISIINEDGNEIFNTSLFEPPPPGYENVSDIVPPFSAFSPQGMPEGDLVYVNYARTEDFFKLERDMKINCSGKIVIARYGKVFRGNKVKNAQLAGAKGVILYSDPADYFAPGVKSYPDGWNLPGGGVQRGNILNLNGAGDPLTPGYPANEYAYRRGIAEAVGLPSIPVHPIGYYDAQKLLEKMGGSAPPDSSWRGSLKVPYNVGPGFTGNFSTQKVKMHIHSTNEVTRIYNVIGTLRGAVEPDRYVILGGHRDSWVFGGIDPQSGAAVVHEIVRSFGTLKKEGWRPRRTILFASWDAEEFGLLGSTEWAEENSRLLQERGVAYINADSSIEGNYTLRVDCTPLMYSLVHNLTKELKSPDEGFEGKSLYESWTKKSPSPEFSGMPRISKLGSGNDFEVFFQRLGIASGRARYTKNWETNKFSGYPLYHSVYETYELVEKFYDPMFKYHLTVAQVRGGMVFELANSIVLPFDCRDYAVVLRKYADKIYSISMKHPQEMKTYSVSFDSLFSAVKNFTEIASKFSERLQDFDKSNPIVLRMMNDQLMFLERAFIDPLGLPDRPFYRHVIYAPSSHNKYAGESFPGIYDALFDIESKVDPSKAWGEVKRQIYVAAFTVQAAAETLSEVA
Sequence of human serum albumin (HSA) (P02768 25-609): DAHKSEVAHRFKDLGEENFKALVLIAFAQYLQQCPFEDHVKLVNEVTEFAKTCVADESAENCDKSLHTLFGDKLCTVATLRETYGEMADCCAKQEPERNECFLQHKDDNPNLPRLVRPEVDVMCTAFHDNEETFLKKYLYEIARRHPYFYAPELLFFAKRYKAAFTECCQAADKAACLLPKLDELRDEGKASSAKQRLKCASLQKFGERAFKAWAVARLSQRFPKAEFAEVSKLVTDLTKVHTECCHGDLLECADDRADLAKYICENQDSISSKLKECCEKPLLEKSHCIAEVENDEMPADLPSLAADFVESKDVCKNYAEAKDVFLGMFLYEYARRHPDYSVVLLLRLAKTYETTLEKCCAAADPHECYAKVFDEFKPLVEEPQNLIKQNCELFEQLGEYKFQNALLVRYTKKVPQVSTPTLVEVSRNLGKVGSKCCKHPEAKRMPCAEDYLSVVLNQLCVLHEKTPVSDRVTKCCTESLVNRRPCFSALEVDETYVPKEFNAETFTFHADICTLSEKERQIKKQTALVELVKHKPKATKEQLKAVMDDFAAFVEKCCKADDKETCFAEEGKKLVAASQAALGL

decrease in PSMA affinity compared to PSMA-HSG (PSMA): fifteen-fold reduction
Structure (SMILES): CC(=O)SCC(=O)N[C@H](CO)C(=O)N[C@H](CO)C(=O)N[C@H](CO)C(=O)N[C@H](CCCCNC(=O)CCCCCN1/C(=C/C=C/C=C/C2=[N+](C)c3ccc(S(=O)(=O)[O-])cc3C2(C)C)C(C)(C)c2cc(S(=O)(=O)O)ccc21)C(=O)N[C@H](Cc1ccc(O)cc1)C(=O)N[C@H](Cc1ccc2ccccc2c1)C(=O)N[C@H](CCCCNC(=O)CCCCCCC(=O)NCCCC[C@H](NC(=O)N[C@@H](CCCC(=O)O)C(=O)O)C(=O)O)C(=O)O [Aad-PSMA-HSG]

decrease in PSMA affinity compared to PSMA-HSG (PSMA): twofold decreased
IC50 (PSMA): 73.1 ± 11.1 nM
Structure (SMILES): CCN1/C(=C/C=C/C=C/C=C/C2=[N+](CCCCCC(=O)NCCCC[C@@H](NC(=O)[C@@H](CO)NC(=O)[C@@H](CO)NC(=O)[C@@H](CO)NC(=O)CSC(C)=O)C(=O)N[C@H](Cc3ccc(O)cc3)C(=O)N[C@H](Cc3ccc4ccccc4c3)C(=O)N[C@H](CCCCNC(=O)CCCCCCC(=O)NCCCC[C@H](NC(=O)N[C@@H](CCC(=O)O)C(=O)O)C(=O)O)C(=O)O)c3ccc(S(=O)(=O)[O-])cc3C2(C)C)C(C)(C)c2cc(S(=O)(=O)O)ccc21 [PSMA-HSG-Cy7-II]

decrease in PSMA affinity compared to PSMA-HSG (PSMA): twofold decreased
IC50 (PSMA): 70.7 ± 10.8 nM
Structure (SMILES): CC(=O)SCC(=O)N[C@H](CO)C(=O)N[C@H](CO)C(=O)N[C@H](CO)C(=O)N[C@H](CCCCNC(=O)CCCCC[N+]1=C(/C=C/C2=CC(=C/C=C3/N(C)c4ccc(S(=O)(=O)O)cc4C3(C)C)/CCC2)C(C)(C)c2cc(S(=O)(=O)[O-])ccc21)C(=O)N[C@H](Cc1ccc(O)cc1)C(=O)N[C@H](Cc1ccc2ccccc2c1)C(=O)N[C@H](CCCCNC(=O)CCCCCCC(=O)NCCCC[C@H](NC(=O)N[C@@H](CCC(=O)O)C(=O)O)C(=O)O)C(=O)O [PSMA-HSG-Cy7-I]

Structure (SMILES): O=C(O)CC[C@H](NC(=O)N[C@@H](CCCCNC(=O)c1ccc([18F])nc1)C(=O)O)C(=O)O [[^18F]DCFPyL]
effective dose ([1]; patients): 0.0165 mSv/MBq

Structure (SMILES): O=C([O-])CN(CCN(CC(=O)[O-])Cc1cc(CCC(=O)NCCCCCC(=O)NCCCC[C@H](NC(=O)N[C@@H](CCC(=O)O)C(=O)O)C(=O)O)ccc1[O-])Cc1cc(CCC(=O)O)ccc1[O-].[68Ga+3].[OH3+] [[^68Ga]Ga-PSMA-11]
effective dose ([1]; human, in vivo): 0.023 ± 0.004 mSv/MBq

Structure (SMILES): C[N+]1=C(/C=C/C2=CC(=C/C=C3/N(CCCCCC(=O)NCCCC[C@@H](NC(=O)[C@@H](CO)NC(=O)[C@@H](CO)NC(=O)[C@@H](CO)NC(=O)CS)C(=O)N[C@H](Cc4ccc(O)cc4)C(=O)N[C@H](Cc4ccc5ccccc5c4)C(=O)N[C@H](CCCCNC(=O)CCCCCCC(=O)NCCCC[C@H](NC(=O)N[C@@H](CCC(=O)O)C(=O)O)C(=O)O)C(=O)O)c4ccc(S(=O)(=O)[O-])cc4C3(C)C)/CCC2)C(C)(C)c2cc(S(=O)(=O)O)ccc21 [[^99mTc]Tc-PSMA-HSG-Cy7-I, metal not drawn]
internalization [% of reference] [2]: 17 ± 2 % of reference
logD [3]: -2.63
B50 MS (mouse serum): 93 ± 16
B50 HSA [4]: 165 ± 21
B50 HS (human serum): 246 ± 27

Structure (SMILES): CC[N+]1=C(/C=C/C=C/C=C/C=C2/N(CCCCCC(=O)NCCCC[C@@H](NC(=O)[C@@H](CO)NC(=O)[C@@H](CO)NC(=O)[C@@H](CO)NC(=O)CS)C(=O)N[C@H](Cc3ccc(O)cc3)C(=O)N[C@H](Cc3ccc4ccccc4c3)C(=O)N[C@H](CCCCNC(=O)CCCCCCC(=O)NCCCC[C@H](NC(=O)N[C@@H](CCC(=O)O)C(=O)O)C(=O)O)C(=O)O)c3ccc(S(=O)(=O)[O-])cc3C2(C)C)C(C)(C)c2cc(S(=O)(=O)O)ccc21 [[^99mTc]Tc-PSMA-HSG-Cy7-II, metal not drawn]
internalization [% of reference] [2]: 28 ± 7 % of reference
logD [3]: -2.71
B50 MS (mouse serum): 53 ± 7
B50 HSA [4]: 149 ± 14
B50 HS (human serum): 121 ± 16

Structure (SMILES): O=C(O)CC[C@H](NC(=O)N[C@@H](CCCCNC(=O)CCCCCCC(=O)NCCCC[C@@H](NC(=O)[C@@H](Cc1ccc2ccccc2c1)NC(=O)[C@@H](Cc1ccc(O)cc1)NC(=O)[C@@H](CO)NC(=O)[C@@H](CO)NC(=O)[C@@H](CO)NC(=O)CS)C(=O)O)C(=O)O)C(=O)O [[^99mTc]Tc-PSMA-I&S, [^99mTc]Tc-mas3-y-nal-k-Sub-KuE, metal not drawn, reference compound] (Mercaptoacetyl-[dS][dS][dS][dY][d2Nal][dK](X1)-OH)
lipophilicity [logD] [3]: −3.01
B50 MS (mouse serum; mouse serum, molar excess of protein over radioligand for half-maximal binding, n = 3): 652 ± 77
absorbed dose coefficient of the urinary bladder wall ([1]; patients): 0.000355 mGy/MBq
effective dose ([1]; patients): 0.0052 mSv/MBq
kidney absorbed dose coefficient ([1]; patients): 0.0733 mGy/MBq
salivary gland absorbed dose coefficient ([1]; patients): 0.0221 mGy/MBq
B50 HSA ([4]; HSA in PBS, molar excess of protein over radioligand for half-maximal binding, n = 3): 324 ± 6
B50 HS (human serum; human serum, molar excess of protein over radioligand for half-maximal binding, n = 3): 321 ± 18
biodistribution, LNCaP tumor [5]: 12.9 ± 1.4 %iD/g
biodistribution, blood [5]: 0.15 ± 0.03 %iD/g
biodistribution, heart [5]: 0.24 ± 0.05 %iD/g
biodistribution, intestines [5]: 1.8 ± 0.8 %iD/g
biodistribution, kidneys [5]: 147.0 ± 10 %iD/g
biodistribution, liver [5]: 0.8 ± 0.4 %iD/g
biodistribution, lung [5]: 2.2 ± 0.2 %iD/g
biodistribution, muscle [5]: 0.2 ± 0.04 %iD/g
biodistribution, pancreas [5]: 0.7 ± 0.1 %iD/g
biodistribution, salivary glands [5]: 3.2 ± 0.8 %iD/g
biodistribution, spleen [5]: 14.2 ± 2.0 %iD/g
biodistribution, stomach [5]: 0.3 ± 0.1 %iD/g
